According to a melting point compilation (Tetko et al.; mined from patent text by program, amines drawn as free bases though some values may be those of a salt):

SMILES	melting point [°C]
COC(=O)NC1=NC(c2cccc(C(F)(F)F)c2)CN1 (configuration not stated)	173 to 174
O=C1CC2CCS(=O)c3ccccc3C2=NN1c1ccc(Cl)cc1 (configuration not stated)	190 to 191
O=C(O)C1(c2ccccc2)Cc2ccccc2C1	193 to 195
Cc1cccc2c1C=Cc1ccccc1C2(C)NO (configuration not stated)	127 to 130
CCOC(=O)c1cc(-c2ccc(OC)cc2)nn(CC2CCCC2)c1=O	63.6 to 64.4
CC(=O)OCNC(=O)c1cc(Cl)nc(Cl)c1	94 to 95
O=C1NC(=O)C(=Cc2ccc(OCCN(Cc3ccccc3)c3nc4ccccc4s3)cc2)S1	185 to 188
CN(C(=O)OC(C)(C)C)c1ccc2onc(OCC(CO)NC(=O)OC(C)(C)C)c2c1 (configuration not stated)	109 to 112
Cc1nn(-c2cc(C(=O)NS(=O)(=O)N(C)C(C)C)c(Cl)cc2F)c(=O)n1C(F)F	118 to 122
CC(C#Cc1ccc2c(c1)CCN(Cc1ccc(-c3ccc(F)cc3)cn1)C2=O)N(O)C(N)=O (configuration not stated)	118 to 120
Nc1cnc(Br)c(Cl)n1	120 to 122
Cc1coc(C)c1N(C)c1cc(C(=O)N(C)C)cc2c1nc(C)n2C	163 to 164
COc1c2c(c(OC)c(OC)c1OC)CCC(CCOc1ccccn1)CC2	132 to 135
N#CNC(=S)Nc1ccc(Cl)cc1	> 250
CCOC(=O)c1c(C)cc(C(=O)O)c(NC=O)c1C	144 to 146
O=C1NCC(C(=O)NCCO[N+](=O)[O-])S1 (configuration not stated)	114 to 115
Cc1cc(C)c2nc(C)n(Cc3ccc(NCC4CCN(C5CCOCC5)CC4)cc3)c2n1	148 to 150
CCOC(=O)C1=C(C)NC(C)=C(C(=O)OCCN2CCN(C(c3ccc(C)cc3)c3ccc(C)cc3)CC2)C1c1cccc(Cl)c1Cl (configuration not stated)	85 to 88
c1ccc2cc(OCCCCCCCCOc3ccc4ccccc4c3)ccc2c1	125 to 126
CCOC(=O)C(=NO)C(=O)Nc1ccc(Cl)cc1C(=O)c1ccccc1	98 to 105
O=C(O)c1ccc(C(=O)NS(=O)(=O)c2ccccc2)cc1	259 to 261
COC(=O)c1cccc(-c2ccccc2[N+](=O)[O-])c1	88 to 90
CCOc1ccc(OCC(=O)OC(C)(C)C)c2c1C(=O)N(CCl)S2(=O)=O	117 to 119
C[C@@H](c1ccc(C(=O)N(C)NC(N)=S)cc1)[C@](O)(Cn1cncn1)c1ccc(F)cc1F	172 to 173
CN(C)CCNC(=O)c1cccc(-c2ccnc(C(=O)N(O)Cc3ccccc3)c2)c1	65 to 70
Cc1cc(C)c2cc(C3CCNCC3)sc2c1	83 to 88

SMILES	melting point [°C]
CCOC(=O)c1cn(Cc2ccccc2)nc1OCc1cccc(OCc2nc(-c3ccccc3)oc2C)c1	95 to 96
CC(=O)c1ccc(OCCCOc2ccc(C(=O)C(=O)O)cc2)cc1O	133 to 135
CC12CCC=CC1=CCC1C2CCC2(C)C(OS(=O)(=O)C(F)(F)F)=CCC12 (configuration not stated)	75 to 76
O=c1[nH]c(-c2ccc(CCN3CCN(c4cccc5ccccc45)CC3)cc2)cs1	307 to 309
CC(=O)NC1C(OCc2ccccc2)OC(COCc2ccccc2)C(OCc2ccccc2)C1OCC(=O)O (configuration not stated)	128 to 129
CCC(CC)NCc1cnc2c(C)c(NC(=O)c3ccc(OC[C@@H]4CCCO4)cc3)ccc2c1	113 to 115
COC(=O)CNC(=O)c1ccc(I)cc1	166 to 168
CCOC(=O)C(C)(C)Oc1ccc(OCCc2nc(-c3ccc(C(N)=O)cc3)oc2C)cc1	112
C=CC(=O)Oc1ccc(C(C)(c2ccc(OC(=O)C=C)cc2)c2ccc(OC(=O)C=C)cc2)cc1	130
CCOC(=O)CCc1cc(OCC(=O)NNC(C)=O)nn1Cc1ccc(Cl)cc1Cl	167 to 170
COc1ccc(OC)c(NC(=O)c2cc(Br)ccc2O)c1	207 to 209
CCCCCC(=O)CCC(=O)O	67 to 68
CCN1CCC(OC)(c2cccc(F)c2F)C1 (single isomer, unassigned; (+))	104 to 106
COCOc1cc(CO)n(Cc2ccc(Cl)cc2Cl)n1	82 to 83
O=C(O[C@@H]1CC[C@H]1Br)c1ccccc1 (relative stereo)	38 to 40
CC(=C1SCCCS1)c1cccc(OCC(=O)O)c1	133 to 134
CC1=C(N2CC2)C(=O)c2c([nH]c(CO)c2C)C1=O	224 to 225
Cc1cccc(C)c1CNc1cc(C(=O)NN)cc2c1nc(C)n2C	277 to 278
Cc1ccc2c(O)c(CS(C)(=O)=O)cnc2c1	285 to 290
Cc1ccc(-c2nnc(N3CCC(O)CC3)nc2-c2ccc(C)cc2)cc1	167 to 168
Cc1cccc(-c2n[nH]cc2-c2ccc(F)c(-c3csc(C(C)(C)O)n3)c2)n1	78 to 80
CN(C)C(=S)C(O)c1ccc(OCc2ccccc2)cc1 (configuration not stated)	104 to 107
CCCCCCCCc1ccc(CCC(CC)(COC(C)=O)NC(C)=O)cc1 (configuration not stated)	107 to 109
COc1cc2c(CC#N)c(Br)[nH]c2cc1Br	169 to 171
O=C(NC1N=C(c2ccccc2F)c2ccccc2NC1=O)c1cc2ccccc2o1 (racemic)	289 to 291
O=C(O)c1ccc(NCc2ccc(OCc3ccccc3)cc2)cc1	206 to 208

SMILES	melting point [°C]
COc1nc(C)c([N+](=O)[O-])cc1C	85.9 to 90.5
CCCCCCCCCCCCCCOC(=O)OC1CC(C)(C)N(C)C(C)(C)C1	32 to 34
Cc1cccc(Cn2c(NC3CCN(CCO)CC3)nc3cccnc32)n1	152
CCOC(=O)C1CCCN(CCC2CCc3cc(OCc4ccc(-c5ccccc5)cc4)ccc3C2)C1 (configuration not stated)	97 to 98
CN1CCCC1=Nc1ncnc2c1ncn2[C@H]1C=C[C@@H](O)C1 (racemic)	135 to 138
COc1ccc(C2COc3cc(OC(C)=O)c(OC(C)=O)cc3C2)cc1 (configuration not stated)	104
COCOc1cc(C=CC(=O)c2c(OC)cc(OC)c(CC=C(C)C)c2O)ccc1OC	116 to 117
COC(=O)Cc1ccccc1NC(=S)NCN	149 to 150
CC(C)(C)OC(=O)NC12CCC1CNC2 (configuration not stated)	113 to 116
N#CCC1(C#N)CCC(=O)CC1	154 to 155
COc1ccc2c(c1)CCC1CCNC(=O)C(CC(C)=NO)=C21 (configuration not stated)	216 to 218
CS(=O)(=O)C(=C1CN(C(c2ccccc2)c2ccccc2)C1)c1cccc(F)c1	210
O=C(O)CNC(=O)c1ncc(-c2cccc(F)c2)cc1O	182 to 184
C=C(C)C(=O)NCCCNc1nc(Cl)nc(Cl)n1	138 to 140
O=C1c2ccccc2C(=O)N1c1cc(C(Cl)(Cl)Cl)ccn1	143
CC1(C)C(=O)NC(=O)c2c1ccc1nc(Nc3c(Cl)cccc3Cl)sc21	> 300
Cc1ccc(Cn2c(=O)c(-c3ccccc3)c3n(c2=O)CC=CS3)cc1	124 to 125
CCCc1nc2c(N)nc(C)c(C)c2n1CCCCNC(C)=O	200 to 201
CCOC(=O)c1ccn2c(=O)c(CC)c(C)nc2c1	95 to 96
CN1CCN(c2cc(Br)cc3c2c(=O)n(Cc2ccccc2)c(=O)n3Cc2ccccc2)CC1	80 to 84
Cc1c(Br)c2c(c(C)c1NC=O)C(c1ccc(C(C)C)cc1)CO2 (configuration not stated)	151 to 152
CN1CCn2c1nc(N1CCc3ccccc3CC1)c(C#N)c2=O	174 to 177
c1ccc2c(c1)OCC(c1ncc[nH]1)O2 (configuration not stated)	225 to 227
COc1ccc(NC=O)c(COC=O)c1	117
O=c1[nH]c2cc(C(F)(F)F)ccc2n(CCn2ncnn2)c1=O	280
N#Cc1ccc(NC(=O)c2ccc3ccccc3c2O)c(OC(F)(F)F)c1	178

SMILES	melting point [°C]
Cc1ccc(C(=O)c2cc(-c3ccc(S(C)(=O)=O)cc3)c(N3CCOCC3)s2)cc1	189
C=CCO/N=C(/C(=O)O)c1ccc(OCCOc2ccc3ccccc3c2)s1	106 to 108
c1cnc(C2CNCC(c3ncccn3)N2)nc1 (configuration not stated)	159 to 161
O=C(NC1CCCC1)n1cc(F)c(=O)[nH]c1=O	137
CCOC(=O)c1ccc(N)cc1C(=O)OCC	95.6
CC(=O)n1ccc2cc(C(=O)NC(C)(C)C)ccc21	187
CCC(=O)C1=C(O)CC(c2c(C)cc(C)c([N+](=O)[O-])c2C)CC1=O (configuration not stated)	174
CCOC(=O)c1c(Nc2ccccc2N)c(C)cn1C	90
CC1CC(=O)c2cc(OCc3ccccc3)cnc2C1 (configuration not stated)	80.5 to 81.5
c1ccc(NC2CCc3ccccc3C2)cc1 (configuration not stated)	193 to 196
Cc1cc2c(cc1-n1cccc1)OC(=O)C2C (configuration not stated)	61 to 63
Cc1ccc(OCCCl)c(C(N)=O)c1	111 to 113
O=C1c2ccccc2C(=O)c2oc(-c3ccc(F)cc3)nc21	> 260
CC(/C=C/c1cscc1-c1ccc2c(c1)C(C)(C)CCC2(C)C)=C\C(=O)O	192 to 193
OC1CN(Cc2nc(-c3ccc4c(c3)Nc3ccccc3S4)cs2)C1	240 to 242
COC(=O)c1csc(C)c1NS(=O)(=O)NC(=O)Nc1nc(OC)cc(OC)n1	174
O=C(OCC1OC(OC(=O)c2ccccc2)C(O)C1OC(=O)c1ccccc1)c1ccccc1 (configuration not stated)	137 to 138
Clc1ccccc1/C=C/C1=CCN(Cc2c[nH]c3ncccc23)CC1	174 to 176
COc1ccc(CCNC(=S)N2CCN(c3ncnc4cc(OC)c(OC)cc34)CC2)cc1OC	98 to 100
COc1cccc(-c2ccc(C(=O)NCCOc3ccc(CC(Oc4ccc(C(C)C)cc4)C(=O)O)cc3)cc2)c1 (configuration not stated)	138 to 139
O=C(CCCN1CCC(c2ccccc2)(c2ccccc2)CC1)c1ccc(F)cc1	107 to 108
CC(C)Nc1nccc(C(=O)C(=O)c2ccc(F)cc2)n1	75 to 77
Cc1nnc(-c2ccnc(N)c2)o1	216 to 217
CC=COC(=O)c1c(S(=O)(=O)NC(=O)Nc2nc(C)cc(C)n2)c(C)nn1C	180 to 183
